The source of these data is patent publication US9174952B2, “Substituted 3-thiazoloamino-propionic acid derivatives and their use as pharmaceuticals” (SANOFI, priority 2011, dated 2015).

The structures appear in SMILES notation.

The term IC50 denotes the midpoint of a concentration-inhibition curve.

In this assay the target is T1, Recombinant human cathepsin A (Homo sapiens, UniProt P10619).
T1 construct: Recombinant human cathepsin A (residues 29-480, with a C-terminal 10-His tag); 10-His (C); purchased R&D Systems 1049-SE
T1 sequence (P10619 29-326 limits assumed): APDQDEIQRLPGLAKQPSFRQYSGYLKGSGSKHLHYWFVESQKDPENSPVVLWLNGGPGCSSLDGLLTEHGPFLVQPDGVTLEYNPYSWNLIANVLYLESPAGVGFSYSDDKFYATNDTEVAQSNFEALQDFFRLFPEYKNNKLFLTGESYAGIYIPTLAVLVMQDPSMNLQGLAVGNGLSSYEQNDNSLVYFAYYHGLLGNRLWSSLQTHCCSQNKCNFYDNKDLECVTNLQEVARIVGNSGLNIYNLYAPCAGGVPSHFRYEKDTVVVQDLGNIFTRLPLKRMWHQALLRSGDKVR
T1 sequence (P10619 327-480 limits assumed): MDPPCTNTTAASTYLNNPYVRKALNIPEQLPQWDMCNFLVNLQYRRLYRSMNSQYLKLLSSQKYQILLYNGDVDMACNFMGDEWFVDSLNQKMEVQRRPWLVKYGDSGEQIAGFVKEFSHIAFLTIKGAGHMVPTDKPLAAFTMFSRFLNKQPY
As to the kind of experiment: Cathepsin A inhibitory activity. Type of assay: biochemical. The settings on record: activated recombinant human cathepsin A 833 ng/ml, Bodipy FL-labeled bradykinin substrate 2 μM, pH 5.5, room temperature. The protocol:
a) Cathepsin A Inhibitory Activity
Recombinant human cathepsin A (residues 29-480, with a C-terminal 10-His tag; R&D Systems, #1049-SE) was proteolytically activated with recombinant human cathepsin L (R&D Systems, #952-CY). Briefly, cathepsin A was incubated at 10 μg/ml with cathepsin L at 1 μg/ml in activation buffer (25 mM 2-(morpholin-4-yl)-ethanesulfonic acid (MES), pH 6.0, containing 5 mM dithiothreitol (DTT)) for 15 min at 37° C. Cathepsin L activity was then stopped by the addition of the cysteine protease inhibitor E-64 (N-(trans-epoxysuccinyl)-L-leucine-4-guanidinobutylamide; Sigma-Aldrich, # E3132; dissolved in activation buffer/DMSO) to a final concentration of 10 μM.
The activated cathepsin A was diluted in assay buffer (25 mM MES, pH 5.5, containing 5 mM DTT) and mixed with the test compound (dissolved in assay buffer containing (v/v) 3% DMSO) or, in the control experiments, with the vehicle in a multiple assay plate. After incubation for 15 min at room temperature, as substrate then bradykinin carrying an N-terminal ®Bodipy FL (4,4-difluoro-5,7-dimethyl-4-bora-3a,4a-diaza-s-indacene-3-propionyl) label (JPT Peptide Technologies GmbH; dissolved in assay buffer) was added to the mixture. The final concentration of cathepsin A was 833 ng/ml and the final concentration of labeled bradykinin 2 μM. After incubation for 15 min at room temperature the reaction was stopped by the addition of stop buffer (130 mM 2-(4-(2-hydroxy-ethyl)-piperazin-1-yl)-ethanesulfonic acid, pH 7.4, containing (v/v) 0.013% ®Triton X-100, 0.13% Coating Reagent 3 (Caliper Life Sciences), 6.5% DMSO and 20 μM ebelactone B (Sigma, # E0886)).
Uncleaved substrate and product were then separated by a microfluidic capillary electrophoresis on a LabChip® 3000 Drug Discovery System (12-Sipper-Chip; Caliper Life Sciences) and quantified by determination of the respective peak areas. Substrate turnover was calculated by dividing product peak area by the sum of substrate and product peak areas, and the enzyme activity and the inhibitory effect of the test compound thus quantified. From the percentage of inhibition of cathepsin A activity observed with the test compound at several concentrations, the inhibitory concentration IC50, i.e. the concentration which effects 50% inhibition of enzyme activity was, calculated.
With `COc1cccc([C@H](CC(=O)O)NC(=O)c2csc(-c3ccccc3Cl)n2)c1` [Example 79, (S)-3-{[2-(2-Chloro-phenyl)-thiazole-4-carbonyl]-amino}-3-(3-methoxy-phenyl)-propionic acid], the IC50 came to 705 nM. Take `O=C(O)CC(NC(=O)c1csc(-c2ccccc2)n1)c1ccc(-c2ccc(F)cc2)cc1` (centres unmarked) [Example 2, 3-(4′-Fluoro-biphenyl-4-yl)-3-[(2-phenyl-thiazole-4-carbonyl)-amino]-propionic acid]: the IC50 was over 10000 nM. `Cc1ccccc1-c1nc(C(=O)N[C@@H](CC(=O)O)c2ccccc2C)cs1` [Example 111, (S)-3-o-Tolyl-3-[(2-o-tolyl-thiazole-4-carbonyl)-amino]-propionic acid]: the IC50 was found to be 106 nM. For `Cc1ccccc1-c1nc(C(=O)N[C@@H](CC(=O)O)c2ccccc2)cs1` [Example 113, (S)-3-Phenyl-3-[(2-o-tolyl-thiazole-4-carbonyl)-amino]-propionic acid], the 50% inhibitory concentration (IC50) was determined as 322 nM. As for `Cc1ccccc1[C@H](CC(=O)O)NC(=O)c1nc(-c2ccccc2)cs1` [Example 136, (S)-3-[(4-Phenyl-thiazole-2-carbonyl)-amino]-3-o-tolyl-propionic acid], the IC50 stood at 88.9 nM. For the molecule `O=C(O)C[C@H](NC(=O)c1nc(-c2ccccc2)cs1)c1cccc(Cl)c1Cl` [Example 95, (S)-3-(2,3-Dichloro-phenyl)-3-[(4-phenyl-thiazole-2-carbonyl)-amino]-propionic acid], the IC50 was 38 nM. The result for `O=C(O)C[C@H](NC(=O)c1csc(-c2ccc(Cl)cc2)n1)c1cccc(Cl)c1Cl` [Example 100, (S)-3-{[2-(4-Chloro-phenyl)-thiazole-4-carbonyl]-amino}-3-(2,3-dichloro-phenyl)-propionic acid] reads 686 nM; that for `O=C(O)C[C@H](NC(=O)c1csc(-c2ccc(C(F)(F)F)cc2)n1)c1cccc(F)c1` [Example 50, (S)-3-(3-Fluoro-phenyl)-3-{[2-(4-trifluoromethyl-phenyl)-thiazole-4-carbonyl]-amino}-propionic acid], over 10000 nM; that for `Cc1ccc([C@H](CC(=O)O)NC(=O)c2nc(-c3ccccc3)cs2)cc1` [Example 11, (S)-3-[(4-Phenyl-thiazole-2-carbonyl)-amino]-3-p-tolyl-propionic acid], 404 nM.

As for `O=C(O)C[C@H](NC(=O)c1csc(-c2ccccc2)n1)c1cccc(F)c1` [Example 48, (S)-3-(3-Fluoro-phenyl)-3-[(2-phenyl-thiazole-4-carbonyl)-amino]-propionic acid], the IC50 is 955 nM.

Turning to `O=C(O)C[C@H](NC(=O)c1nc(-c2ccccc2)cs1)c1cccc(C(F)(F)F)c1` [Example 99, (S)-3-[(4-Phenyl-thiazole-2-carbonyl)-amino]-3-(3-trifluoromethyl-phenyl)-propionic acid], the IC50 was determined as 3310 nM. In the case of `COc1cccc([C@H](CC(=O)O)NC(=O)c2csc(-c3ccc(C(F)(F)F)cc3)n2)c1OC` [Example 20, (S)-3-(2,3-Dimethoxy-phenyl)-3-{[2-(4-trifluoromethyl-phenyl)-thiazole-4-carbonyl]-amino}-propionic acid], the IC50 amounted to 6340 nM. Then `O=C(O)C[C@H](NC(=O)c1nc(-c2ccccc2)cs1)c1ccc(Cl)cc1` [Example 69, (S)-3-(4-Chloro-phenyl)-3-[(4-phenyl-thiazole-2-carbonyl)-amino]-propionic acid], with 627 nM; and `COc1cccc([C@H](CC(=O)O)NC(=O)c2csc(-c3ccccc3)n2)c1` [Example 52, (S)-3-(3-Methoxy-phenyl)-3-[(2-phenyl-thiazole-4-carbonyl)-amino]-propionic acid], with 2860 nM; and `Cc1cc(C)n(-c2nc(C(=O)N[C@@H](CC(=O)O)c3ccccc3C)cs2)n1` [Example 6, (S)-3-{[2-(3,5-Dimethyl-pyrazol-1-yl)-thiazole-4-carbonyl]-amino}-3-o-tolyl-propionic acid], with over 10000 nM. For the molecule `Cc1ccccc1[C@H](CC(=O)O)NC(=O)c1csc(-c2ccc(Cl)cc2)n1` [Example 109, (S)-3-{[2-(4-Chloro-phenyl)-thiazole-4-carbonyl]-amino}-3-o-tolyl-propionic acid], the IC50 is 121 nM. Turning to `Cc1ccccc1-c1nc(C(=O)N[C@@H](CC(=O)O)c2ccc(F)cc2)cs1` [Example 54, (S)-3-(4-Fluoro-phenyl)-3-[(2-o-tolyl-thiazole-4-carbonyl)-amino]-propionic acid], the IC50 amounted to 303 nM.

Take `O=C(O)C[C@H](NC(=O)c1csc(-c2ccccc2)n1)c1ccccc1C(F)(F)F` [Example 62, (S)-3-[(2-Phenyl-thiazole-4-carbonyl)-amino]-3-(2-trifluoromethyl-phenyl)-propionic acid]: the IC50 amounted to 2630 nM. Regarding `O=C(O)C[C@H](NC(=O)c1csc(-c2ccc(Cl)cc2)n1)c1ccccc1` [Example 110, (S)-3-{[2-(4-Chloro-phenyl)-thiazole-4-carbonyl]-amino}-3-phenyl-propionic acid], the IC50 was determined as 3880 nM.

As to `Cc1ccc(-c2nc(C(=O)N[C@@H](CC(=O)O)c3ccccc3C)cs2)cc1` [Example 10, (S)-3-o-Tolyl-3-[(2-p-tolyl-thiazole-4-carbonyl)-amino]-propionic acid], the IC50 is 187 nM. With `Cc1ccccc1-c1nc(C(=O)N[C@@H](CC(=O)O)c2ccc(Cl)cc2Cl)cs1` [Example 21, (S)-3-(2,4-Dichloro-phenyl)-3-[(2-o-tolyl-thiazole-4-carbonyl)-amino]-propionic acid], the IC50 worked out at 886 nM. For the molecule `O=C(O)C[C@H](NC(=O)c1csc(-c2ccc(C(F)(F)F)cc2)n1)c1cccc(Cl)c1` [Example 46, (S)-3-(3-Chloro-phenyl)-3-{[2-(4-trifluoromethyl-phenyl)-thiazole-4-carbonyl]-amino}-propionic acid], the IC50 was determined as 10500 nM. `O=C(O)C[C@H](NC(=O)c1csc(-c2ccc(Cl)cc2)n1)c1cccc(F)c1` [Example 105, (S)-3-{[2-(4-Chloro-phenyl)-thiazole-4-carbonyl]-amino}-3-(3-fluoro-phenyl)-propionic acid]: the half-maximal inhibitory concentration (IC50) stood at 2960 nM. The result for `O=C(O)CC(NC(=O)c1csc(-c2ccccc2F)n1)C1CCCCC1` (centres unmarked) [Example 131, 3-Cyclohexyl-3-{[2-(2-fluoro-phenyl)-thiazole-4-carbonyl]-amino}-propionic acid] reads 1430 nM; that for `O=C(O)C[C@H](NC(=O)c1csc(-c2ccccc2F)n1)c1cccc(F)c1` [Example 49, (S)-3-(3-Fluoro-phenyl)-3-{[2-(2-fluoro-phenyl)-thiazole-4-carbonyl]-amino}-propionic acid], 724 nM. Consider `Cc1ccccc1-c1nc(C(=O)N[C@@H](CC(=O)O)c2cccc(F)c2)cs1` [Example 47, (S)-3-(3-Fluoro-phenyl)-3-[(2-o-tolyl-thiazole-4-carbonyl)-amino]-propionic acid], for which the IC50 was 280 nM. As to `O=C(O)CC(NC(=O)c1csc(-c2ccc(Cl)cc2)n1)C1CCCCC1` (centres unmarked) [Example 126, 3-{[2-(4-Chloro-phenyl)-thiazole-4-carbonyl]-amino}-3-cyclohexyl-propionic acid], the IC50 was found to be 3940 nM. For `O=C(O)C[C@H](NC(=O)c1csc(-c2ccc(Cl)cc2)n1)c1ccc(Cl)cc1Cl` [Example 102, (S)-3-{[2-(4-Chloro-phenyl)-thiazole-4-carbonyl]-amino}-3-(2,4-dichloro-phenyl)-propionic acid], the IC50 is 2680 nM.

Consider `O=C(O)C[C@H](NC(=O)c1csc(-c2ccccc2Cl)n1)c1ccccc1F` [Example 76, (S)-3-{[2-(2-Chloro-phenyl)-thiazole-4-carbonyl]-amino}-3-(2-fluoro-phenyl)-propionic acid], for which the IC50 worked out at 658 nM.
